For orientation: IC50 means the concentration that inhibits the measured activity by half. In general, MIC refers to the lowest concentration found to suppress growth.

Test [1] has as its system Candida albicans (SC5314). Briefly: Broth microdilution MIC (Example 1). To be noted: in the presence of 1 μg/mL fluconazole; for MIC: Candida albicans, SC5314, read-out: MIC against Candida albicans (SC5314). Format: cell-based. How it is done: (§1) MICs/minimum effective concentrations (MECs) were determined for each of the novel analogs against the three major human fungal pathogens, A. fumigatus, C. neoformans, and C. albicans. […] Thus, analogs of FK506 and FK520 can tolerate up to 100-fold reduction in antifungal activity and still be considered for in vivo testing. For C. neoformans, MICs were the most uniform and ranged from 0.2 to 2 μg/mL, which is between 4- and 40-fold reduced for antifungal activity.
(§2) In vitro antifungal activities of FK506, FK520, and analogs were assessed in RPMI 1640 (Sigma-Aldrich) for all strains tested. MICs/minimum effective concentrations (MECs) for each drug were measured using modified Clinical and Laboratory Standards Institute (CLSI) M38-A2 and M27-A3 standard in vitro antifungal susceptibility protocols. Broth microdilution assays for MIC/MEC assessment were performed as described previously (see, Juvvadi P R, et al., 2019, Nat Commun 10:4275). All antifungal assays with C. neoformans were performed at 37° C. Antifungal susceptibility testing for C. albicans was performed in the presence of a uniform 1 μg/mL concentration of fluconazole to sensitize the organism to calcineurin inhibition.

For test [2], the system named is Cryptococcus neoformans (H99). Briefly: Broth microdilution MIC (Example 1). The following applies: for MIC: Cryptococcus neoformans, read-out: MIC against Cryptococcus neoformans (H99). In kind it is cell-based. How it is done: as §1, §2
Test [3] concerns IL-2 expression in primary mouse CD4+ T cells (mammalian calcineurin). The test is described as follows: In vitro immunosuppressive activity, IL-2 expression (Example 3). In kind it is cell-based. To be noted: 72 h. On the procedure:
Modifications at the C-22 position reduce inhibition of mammalian calcineurin signaling Mammalian calcineurin inhibition was then assessed and found to be reduced for these FK520 analogs. The inhibition of mammalian calcineurin was assessed by measuring the reduction of IL-2 expression from primary mouse CD4^+ T cells cultured in the presence of FK506, FK520, or an analog. Calcineurin activity is required for T cell activation and cytokine production, and IL-2 production serves as an effective measure of mammalian calcineurin activity. After culturing mouse CD4′ T cells for 72 h, IL-2 expression was analyzed by flow cytometry to evaluate the immunosuppressive activity of the analogs. […] However, compound concentrations that permit high IL-2 expression are less likely to result in cell death.
Spleen and lymph nodes from C57BL/6 mice were collected and homogenized through a 40-μm filter. Pan-CD4^+ T cells were enriched using the MagniSort Mouse CD4 T Cell Enrichment Kit (Invitrogen). Thereafter, CD4^+CD25^−CD62L^hiCD44^lo naïve CD4^+ T cells were FACS-sorted using a MoFlo Astrios cell sorter (Beckman Coulter). Naïve CD4^+ T cells were cultured in Iscove's Modified Dulbecco's Medium supplemented with 10% fetal bovine serum (FBS), penicillin (10 U/mL), streptomycin (10 μg/mL), glutamine (2 mM), gentamicin (50 μg/mL), and β-mercaptoethanol (55 μM). Cells were cultured for 72 h on anti-hamster IgG-coated plates with hamster anti-CD3s antibodies, hamster anti-CD28 antibodies, neutralizing anti-IL-4 antibodies, recombinant IL-12 (10 ng/mL), and recombinant IL-2 (50 U/mL). During this culture, cells were incubated with serially diluted drugs suspended in DMSO.

The next test relates to C. neoformans. The test is described as follows: MIC assay (Example 4). Format: cell-based, Cryptococcus neoformans. The following applies: 37° C.; for MIC: Cryptococcus neoformans, read-out: C. neoformans MIC. How it is done: Both JH-FK-10 and JH-FK-11 maintained in vitro antifungal activity against C. neoformans with MICs of 0.8 and 1.6 μg/mL, respectively (Table 11).
In vitro antifungal activity of FK506, FK520, and analogs was assessed in RPMI 1640 (Sigma-Aldrich) for all strains tested. Minimum inhibitory concentrations (MIC) for each drug were measured using modified Clinical and Laboratory Standards Institute (CLSI) M38-A2 and M27-A3 standard in vitro antifungal susceptibility protocols. Broth microdilution assays for MIC assessment were performed as previously described. All antifungal assays with C. neoformans were performed at 37° C.

For another test, the system named is Aspergillus fumigatus. Briefly: Broth microdilution MIC/MEC (Example 1). Format: cell-based. To be noted: for minimal effective concentration: Aspergillus fumigatus, strain Af293, read-out: MEC against Aspergillus fumigatus (Af293). How it is done:
as §1
To assess the antifungal activity against other human fungal pathogens, JH-FK-05 was selected to test against a panel of pathogenic molds and drug-resistant A. fumigatus strains (Table 4). JH-FK-05 registered MECs as low as 1 μg/mL for some of these highly recalcitrant species, such as Mucor circinelloides, Rhizopus oryzae, and pan azole-resistant A. fumigatus (strain F14946).
as §2
(In general: Broth dilution looks for growth in wells or tubes with falling amounts of substance.)

In brackets after ≈: the same amount, converted by molar mass. Where two headings read alike, the source gives them in different places.

Regarding `CC[C@@H]1/C=C(\C)C[C@H](C)C[C@H](OC)[C@H]2O[C@@](O)(C(=O)C(=O)N3CCCC[C@H]3C(=O)O[C@H](/C(C)=C/[C@@H]3CC[C@@H](O)[C@H](OC)C3)[C@H](C)[C@@H](O)CC1=O)[C@H](C)C[C@@H]2OC` [FK520, reference compound], the “MIC against Candida albicans (SC5314)” value in test [1] was 0.02 µg/mL. The “MIC against Cryptococcus neoformans (H99)” value in test [2] (37° C.) is 0.05 µg/mL (≈ 0.0631 µM). Also, the “antifungal activity (MIC/MEC range)” value in test [2] (range over C. neoformans, C. albicans and A. fumigatus) was in the range of 0.016 to 0.05 µg/mL. Besides, the IC50 in test [3] is 0.3 nM. The “C. neoformans MIC” value in the test on C. neoformans (Table 11), in the test with C. neoformans (Table 12) and in the test on C. neoformans (Table 13) was 0.05 µg/mL throughout.
For `C=CCC1C=C(C)CC(C)CC(OC)C2OC(O)(C(=O)C(=O)N3CCCCC3C(=O)OC(C(C)=CC3CCC(O)C(OC)C3)C(C)C(O)CC1=O)C(C)CC2OC` (stereo not shown) [FK506, reference compound], the MIC amounted to 0.02 µg/mL in test [1]; 0.05 µg/mL (≈ 0.0622 µM) in test [2] (37° C.); 0.05 µg/mL (≈ 0.0622 µM) in the test on C. neoformans (Table 11); 0.05 µg/mL (≈ 0.0622 µM) in the test on C. neoformans (Table 12); 0.05 µg/mL (≈ 0.0622 µM) with C. neoformans (Table 13). In addition, in the test with Aspergillus fumigatus, the minimal effective concentration is 0.016 µg/mL. Also, the IC50 in test [3] is 0.09 nM.
`C=CC[C@@H]1/C=C(\C)C[C@H](C)C[C@H](OC)[C@H]2O[C@@](O)(C(=O)C(=O)N3CCCC[C@H]3C(=O)O[C@H](/C(C)=C/[C@@H]3CC[C@@H](O)[C@H](OC)C3)[C@H](C)[C@@H](O)C/C1=N/NC(=O)CC)[C@H](C)C[C@@H]2OC` [JH-FK-02]: the MIC is 1.6 µg/mL in test [1] and 2 µg/mL (≈ 2.29 µM) in test [2] (37° C.). In addition, in the test on Aspergillus fumigatus, the minimal effective concentration came out at 2 µg/mL.
On to `CC[C@@H]1/C=C(\C)C[C@H](C)C[C@H](OC)[C@H]2O[C@@](O)(C(=O)C(=O)N3CCCC[C@H]3C(=O)O[C@H](/C(C)=C/[C@@H]3CC[C@@H](O)[C@H](OC)C3)[C@H](C)[C@@H](O)C/C1=N/NC(C)=O)[C@H](C)C[C@@H]2OC` [JH-FK-05], for which the MIC was 0.8 µg/mL in test [1], 1 µg/mL (≈ 1.18 µM) in test [2] (37° C.) and 1 µg/mL (≈ 1.18 µM) in the test with C. neoformans (Table 13). Also, the “fold reduction of antifungal activity compared to FK506” value in test [2] (C. neoformans) is 20 fold. Also, the “broad-spectrum antifungal activity / MIC ranking” value in test [2] (C. neoformans, C. albicans, A. fumigatus) is recorded as “maintained high levels of broad-spectrum antifungal activity across the three species”. Besides, the minimal effective concentration with Aspergillus fumigatus is 2 µg/mL. The same compound showed an MIC/MEC in the test on Aspergillus fumigatus (echinocandin-resistant strain EMFR-S678P) of 2 µg/mL (≈ 2.36 µM).
Turning to `CC[C@@H]1/C=C(\C)C[C@H](C)C[C@H](OC)[C@H]2O[C@@](O)(C(=O)C(=O)N3CCCC[C@H]3C(=O)O[C@H](/C(C)=C/C3CC[C@@H](O)[C@H](OC)C3)[C@H](C)[C@@H](O)C/C1=N/NC(=O)OC)[C@H](C)C[C@@H]2OC` (stereo partly shown) [JH-FK-08], the IC50 in test [3] was 42.6 nM.

Values taken from US20260315446A1, “ANTIFUNGAL COMPOUNDS AND USES THEREOF” (priority 2023, published 2026).
